# Assay results reported in article PMC5218480 (PLoS ONE, 2017).
# Test system: MV-4-11 cells
# Test: Gene expression microarray analysis (Affymetrix PrimeView) and GSEA
# Type: cell-based, human
# Design: RFU PODN (11730768_x_at) / Fold change /veh PODN (11730768_x_at) / RFU LINC00158 (11744669_a_at) / Fold change /veh LINC00158 (11744669_a_at) / RFU DUSP10 (11751237_a_at) / Fold change /veh DUSP10 (11751237_a_at) / RFU ID3 (11757404_x_at) / Fold change /veh ID3 (11757404_x_at) / RFU PLEKHG5 (11737974_s_at) / Fold change /veh PLEKHG5 (11737974_s_at) / RFU LRRC4B (11730491_at) / Fold change /veh LRRC4B (11730491_at) / RFU GIMAP4 (11747438_a_at) / Fold change /veh GIMAP4 (11747438_a_at) / RFU KRT8 (11758183_x_at) / Fold change /veh KRT8 (11758183_x_at) / RFU CNN1 (11734310_a_at) / Fold change /veh CNN1 (11734310_a_at) / RFU VPS37D (11726825_at) / Fold change /veh VPS37D (11726825_at) / RFU C10orf10 (11716522_x_at) / Fold change /veh C10orf10 (11716522_x_at) / RFU KIR2DL2 /// KIR2DL4 /// KIR2DL5A /// KIR2DL5B /// KIR2DS1 /// KIR2DS2 /// KIR2DS3 /// KIR2DS4 /// KIR3DL3 /// KIR3DL3 /// KIR3DS1 (11738374_at) / Fold change /veh KIR2DL2 /// KIR2DL4 /// KIR2DL5A /// KIR2DL5B /// KIR2DS1 /// KIR2DS2 /// KIR2DS3 /// KIR2DS4 /// KIR3DL3 /// KIR3DL3 /// KIR3DS1 (11738374_at) / RFU C1QL1 (11718748_at) / Fold change /veh C1QL1 (11718748_at) / RFU TMPRSS4 (11747572_a_at) / Fold change /veh TMPRSS4 (11747572_a_at) / RFU HAMP (11756126_x_at) / Fold change /veh HAMP (11756126_x_at) / RFU RNFT2 (11725882_a_at) / Fold change /veh RNFT2 (11725882_a_at) / RFU NR4A2 (11747474_a_at) / Fold change /veh NR4A2 (11747474_a_at) / RFU ABCC12 (11746883_a_at) / Fold change /veh ABCC12 (11746883_a_at) / RFU TMEM136 (11760407_x_at) / Fold change /veh TMEM136 (11760407_x_at) / RFU CLDN22 /// WWC2 (11732394_at) / Fold change /veh CLDN22 /// WWC2 (11732394_at) / RFU HLA-DPB1 (11760878_x_at) / Fold change /veh HLA-DPB1 (11760878_x_at) / RFU SPINT1 (11716480_a_at) / Fold change /veh SPINT1 (11716480_a_at) / RFU GAP43 (11754022_s_at) / Fold change /veh GAP43 (11754022_s_at) / RFU A4GNT (11735810_at) / Fold change /veh A4GNT (11735810_at) / RFU PRB3 (11715151_x_at) / Fold change /veh PRB3 (11715151_x_at) / RFU TUBB4B (11761932_at) / Fold change /veh TUBB4B (11761932_at) / RFU CAPN14 (11732068_a_at) / Fold change /veh CAPN14 (11732068_a_at) / RFU TMCC2 (11721928_a_at) / Fold change /veh TMCC2 (11721928_a_at) / RFU IRGQ (11745062_a_at) / Fold change /veh IRGQ (11745062_a_at) / RFU FAM174B (11720279_a_at) / Fold change /veh FAM174B (11720279_a_at) / RFU TMPRSS4 (11748680_a_at) / Fold change /veh TMPRSS4 (11748680_a_at) / RFU FAM212B (11763350_a_at) / Fold change /veh FAM212B (11763350_a_at) / RFU PLEKHG5 (11743358_a_at) / Fold change /veh PLEKHG5 (11743358_a_at) / RFU ZSCAN30 (11745921_a_at) / Fold change /veh ZSCAN30 (11745921_a_at) / RFU CMKLR1 (11741424_a_at) / Fold change /veh CMKLR1 (11741424_a_at) / RFU LOC101060620 /// MAPK8IP1 (11723275_at) / Fold change /veh LOC101060620 /// MAPK8IP1 (11723275_at) / RFU SPTSSB (11747773_x_at) / Fold change /veh SPTSSB (11747773_x_at) / RFU PRSS12 (11739890_at) / Fold change /veh PRSS12 (11739890_at) / RFU BIN1 (11741810_x_at) / Fold change /veh BIN1 (11741810_x_at) / RFU WNT11 (11732464_a_at) / Fold change /veh WNT11 (11732464_a_at) / RFU C10orf10 (11716521_a_at) / Fold change /veh C10orf10 (11716521_a_at) / RFU C5orf56 (11738089_at) / Fold change /veh C5orf56 (11738089_at) / RFU CYB561 (11721691_x_at) / Fold change /veh CYB561 (11721691_x_at) / RFU ANKRD19P (11752326_a_at) / Fold change /veh ANKRD19P (11752326_a_at) / RFU OR2T12 /// OR2T33 /// OR2T8 (11738714_s_at) / Fold change /veh OR2T12 /// OR2T33 /// OR2T8 (11738714_s_at) / RFU VCAN (11748164_a_at) / Fold change /veh VCAN (11748164_a_at) / RFU JSRP1 (11732532_at) / Fold change /veh JSRP1 (11732532_at) / RFU KRTAP10-11 (11738290_x_at) / Fold change /veh KRTAP10-11 (11738290_x_at) / RFU MYO3A (11730013_a_at) / Fold change /veh MYO3A (11730013_a_at) / RFU EBF3 (11725865_a_at) / Fold change /veh EBF3 (11725865_a_at) / RFU CAMK2N1 (11719241_x_at) / Fold change /veh CAMK2N1 (11719241_x_at) / RFU C5orf56 (11738088_a_at) / Fold change /veh C5orf56 (11738088_a_at) / RFU OLFML3 (11715873_a_at) / Fold change /veh OLFML3 (11715873_a_at) / RFU LOC100653217 /// NTM (11731650_a_at) / Fold change /veh LOC100653217 /// NTM (11731650_a_at) / RFU MAPK11 (11762145_a_at) / Fold change /veh MAPK11 (11762145_a_at) / RFU FIZ1 (11724087_x_at) / Fold change /veh FIZ1 (11724087_x_at) / RFU OASL (11726364_x_at) / Fold change /veh OASL (11726364_x_at) / RFU SOX15 (11748057_x_at) / Fold change /veh SOX15 (11748057_x_at) / RFU CD79A (11719716_a_at) / Fold change /veh CD79A (11719716_a_at) / RFU HIST1H1D (11736915_at) / Fold change /veh HIST1H1D (11736915_at) / RFU CASKIN2 (11723855_a_at) / Fold change /veh CASKIN2 (11723855_a_at) / RFU LOC730098 (11760151_x_at) / Fold change /veh LOC730098 (11760151_x_at) / RFU OR4N2 (11742367_at) / Fold change /veh OR4N2 (11742367_at) / RFU PRRT2 (11749266_a_at) / Fold change /veh PRRT2 (11749266_a_at) / RFU SNX32 (11753110_a_at) / Fold change /veh SNX32 (11753110_a_at) / RFU CDHR5 (11726645_a_at) / Fold change /veh CDHR5 (11726645_a_at) / RFU RCAN1 (11760418_a_at) / Fold change /veh RCAN1 (11760418_a_at) / RFU FAM167A (11723789_a_at) / Fold change /veh FAM167A (11723789_a_at) / RFU FAM26E (11764081_at) / Fold change /veh FAM26E (11764081_at) / RFU ISYNA1 (11749810_s_at) / Fold change /veh ISYNA1 (11749810_s_at) / RFU ACY1 (11761880_at) / Fold change /veh ACY1 (11761880_at) / RFU 11764098_at / Fold change /veh 11764098_at / RFU SAMD14 (11745864_x_at) / Fold change /veh SAMD14 (11745864_x_at) / RFU NPB (11741838_a_at) / Fold change /veh NPB (11741838_a_at) / RFU TMPRSS6 (11731388_a_at) / Fold change /veh TMPRSS6 (11731388_a_at) / RFU KRTAP10-2 (11738614_at) / Fold change /veh KRTAP10-2 (11738614_at) / RFU ARHGAP8 /// PRR5-ARHGAP8 (11727945_x_at) / Fold change /veh ARHGAP8 /// PRR5-ARHGAP8 (11727945_x_at) / RFU KRTAP5-7 /// NADSYN1 (11734609_at) / Fold change /veh KRTAP5-7 /// NADSYN1 (11734609_at) / RFU RASL12 (11751679_a_at) / Fold change /veh RASL12 (11751679_a_at) / RFU CDKN2B (11736163_a_at) / Fold change /veh CDKN2B (11736163_a_at) / RFU PRF1 (11729649_at) / Fold change /veh PRF1 (11729649_at) / RFU, ZNF638 /// ZNF638-IT1 / Fold change vs veh, ZNF638 /// ZNF638-IT1 / RFU, PANK3 / Fold change vs veh, PANK3 / RFU, SH3YL1 / Fold change vs veh, SH3YL1 / RFU, ZEB2 / Fold change vs veh, ZEB2 / RFU, NRIP1 / Fold change vs veh, NRIP1 / RFU, PTTG1IP / Fold change vs veh, PTTG1IP / RFU, CAPN2 / Fold change vs veh, CAPN2 / RFU, MED14 / Fold change vs veh, MED14 / RFU, SNORA58 / Fold change vs veh, SNORA58 / RFU, C1orf63 / Fold change vs veh, C1orf63 / RFU, LRRFIP1 / Fold change vs veh, LRRFIP1 / RFU, NDUFAF7 / Fold change vs veh, NDUFAF7 / RFU, SLC12A2 / Fold change vs veh, SLC12A2 / RFU, IBTK / Fold change vs veh, IBTK / RFU, ESF1 / Fold change vs veh, ESF1 / Fold change vs veh, TMEM50B / RFU, TAOK1 / Fold change vs veh, TAOK1 / RFU, ACBD3 / Fold change vs veh, ACBD3 / RFU, TMA16 / Fold change vs veh, TMA16 / RFU, RWDD3 / Fold change vs veh, RWDD3 / RFU, BCAT1 / Fold change vs veh, BCAT1 / RFU, EDEM3 / Fold change vs veh, EDEM3 / RFU, TMEM33 / Fold change vs veh, TMEM33 / RFU, WDR75 / Fold change vs veh, WDR75 / RFU, AHCTF1 / Fold change vs veh, AHCTF1 / RFU, TFRC / Fold change vs veh, TFRC / RFU, ZDHHC17 / Fold change vs veh, ZDHHC17 / RFU, NOM1 / Fold change vs veh, NOM1 / RFU, ARL8B / Fold change vs veh, ARL8B / RFU, ZBTB11 / Fold change vs veh, ZBTB11 / RFU, TAMM41 / Fold change vs veh, TAMM41 / RFU, KIAA1704 /// LOC100996395 / Fold change vs veh, KIAA1704 /// LOC100996395 / RFU, ING1 / Fold change vs veh, ING1 / RFU, TRMT61B / Fold change vs veh, TRMT61B / RFU, FUBP3 / Fold change vs veh, FUBP3 / RFU, TP53 / Fold change vs veh, TP53 / RFU, TNKS2 / Fold change vs veh, TNKS2 / RFU, ZFP14 / Fold change vs veh, ZFP14 / RFU, ACTR2 / Fold change vs veh, ACTR2 / RFU, PPP3R1 / Fold change vs veh, PPP3R1 / RFU, PIK3R1 / Fold change vs veh, PIK3R1 / RFU, HNRNPA1 / Fold change vs veh, HNRNPA1 / RFU, RNF170 / Fold change vs veh, RNF170 / RFU, ZNF28 / Fold change vs veh, ZNF28 / RFU, RNGTT / Fold change vs veh, RNGTT / RFU, OGT / Fold change vs veh, OGT / RFU, BRD1 / Fold change vs veh, BRD1 / RFU, MARS / Fold change vs veh, MARS / RFU, ZNF655 / Fold change vs veh, ZNF655 / RFU, FAHD1 / Fold change vs veh, FAHD1 / RFU, BDP1 / Fold change vs veh, BDP1 / RFU, LRRCC1 / Fold change vs veh, LRRCC1 / RFU, ARID1A / Fold change vs veh, ARID1A / RFU, ZNF146 / Fold change vs veh, ZNF146 / RFU, ZNF330 / Fold change vs veh, ZNF330 / RFU, GPN3 / Fold change vs veh, GPN3 / RFU, C9orf123 / Fold change vs veh, C9orf123 / RFU, N4BP2L2 / Fold change vs veh, N4BP2L2 / RFU, ARFIP1 / Fold change vs veh, ARFIP1 / RFU, FAM179B / Fold change vs veh, FAM179B / RFU, BCL10 / Fold change vs veh, BCL10 / RFU, UHRF1BP1L / Fold change vs veh, UHRF1BP1L / RFU, BET1 / Fold change vs veh, BET1 / RFU, CNOT2 / Fold change vs veh, CNOT2 / RFU, ZNF268 / Fold change vs veh, ZNF268 / Fold change vs veh, ZNF507 / RFU, DGCR2 / Fold change vs veh, DGCR2 / RFU, WDSUB1 / Fold change vs veh, WDSUB1 / Fold change vs veh, HSP90B1 /// MIR3652 / RFU, ADSS / Fold change vs veh, ADSS / RFU, GK / Fold change vs veh, GK / RFU, ZNF148 / Fold change vs veh, ZNF148 / RFU, TAF9 / Fold change vs veh, TAF9 / RFU, SLC1A5 / Fold change vs veh, SLC1A5 / RFU, SLMO2 / Fold change vs veh, SLMO2 / RFU, ABCC4 / Fold change vs veh, ABCC4 / RFU, LOC101060439 /// RAP1B / Fold change vs veh, LOC101060439 /// RAP1B / RFU, RFX7 / Fold change vs veh, RFX7 / RFU, GTPBP10 / Fold change vs veh, GTPBP10 / RFU, CNEP1R1 / Fold change vs veh, CNEP1R1 / RFU, BIVM-ERCC5 /// ERCC5 / Fold change vs veh, BIVM-ERCC5 /// ERCC5 / RFU, ILF3 / Fold change vs veh, ILF3 / RFU 11762660_at / Fold change /veh 11762660_at / RFU VCAN (11757783_s_at) / Fold change /veh VCAN (11757783_s_at) / RFU DDX43 (11728927_at) / Fold change /veh DDX43 (11728927_at) / RFU KRT8 (11758188_x_at) / Fold change /veh KRT8 (11758188_x_at) / RFU NKD1 (11759106_at) / Fold change /veh NKD1 (11759106_at) / RFU SRD5A1 (11742802_a_at) / Fold change /veh SRD5A1 (11742802_a_at) / RFU TPSAB1 /// TPSB2 (11721975_s_at) / Fold change /veh TPSAB1 /// TPSB2 (11721975_s_at) / RFU GSTM3 (11746129_a_at) / Fold change /veh GSTM3 (11746129_a_at) / RFU IL23R (11737362_x_at) / Fold change /veh IL23R (11737362_x_at) / RFU TMEM51 (11727254_a_at) / Fold change /veh TMEM51 (11727254_a_at) / RFU PIWIL2 (11732686_x_at) / Fold change /veh PIWIL2 (11732686_x_at) / RFU ORM1 (11744905_x_at) / Fold change /veh ORM1 (11744905_x_at) / RFU CCDC152 (11743942_at) / Fold change /veh CCDC152 (11743942_at) / RFU ECM1 (11717891_a_at) / Fold change /veh ECM1 (11717891_a_at) / RFU IL23R (11748794_a_at) / Fold change /veh IL23R (11748794_a_at) / RFU TNFAIP8L3 (11732012_x_at) / Fold change /veh TNFAIP8L3 (11732012_x_at) / RFU MBOAT4 (11741988_at) / Fold change /veh MBOAT4 (11741988_at) / RFU 11764193_at / Fold change /veh 11764193_at / RFU TMEM53 (11763286_at) / Fold change /veh TMEM53 (11763286_at) / RFU MAGEB2 (11727129_at) / Fold change /veh MAGEB2 (11727129_at) / RFU TMEM200A (11744735_a_at) / Fold change /veh TMEM200A (11744735_a_at) / RFU CCDC152 (11751479_a_at) / Fold change /veh CCDC152 (11751479_a_at) / RFU FAM211A (11726209_a_at) / Fold change /veh FAM211A (11726209_a_at) / RFU RGS16 (11746705_a_at) / Fold change /veh RGS16 (11746705_a_at) / RFU VCAN (11755009_s_at) / Fold change /veh VCAN (11755009_s_at) / RFU RHOB (11743442_s_at) / Fold change /veh RHOB (11743442_s_at) / RFU RGS16 (11720943_a_at) / Fold change /veh RGS16 (11720943_a_at) / RFU RGS16 (11720944_at) / Fold change /veh RGS16 (11720944_at) / RFU, VPS4B / Fold change vs veh, VPS4B / RFU, CREB1 / Fold change vs veh, CREB1 / RFU, DNAJC13 / Fold change vs veh, DNAJC13 / RFU, GNAQ / Fold change vs veh, GNAQ / RFU, CDK5R1 / Fold change vs veh, CDK5R1 / RFU, ZRANB3 / Fold change vs veh, ZRANB3 / RFU, CUL4A / Fold change vs veh, CUL4A / RFU, CCNY / Fold change vs veh, CCNY / RFU, UFL1 / Fold change vs veh, UFL1 / RFU, COG3 / Fold change vs veh, COG3 / RFU, DIAPH2 / Fold change vs veh, DIAPH2 / RFU, SKA2 / Fold change vs veh, SKA2 / RFU, AFF3 / Fold change vs veh, AFF3 / RFU, LMF1 / Fold change vs veh, LMF1 / RFU, IPO11 / Fold change vs veh, IPO11 / RFU, DFFB / Fold change vs veh, DFFB / RFU, FOXP1 / Fold change vs veh, FOXP1 / RFU, CARD8 / Fold change vs veh, CARD8 / RFU, STRN3 / Fold change vs veh, STRN3 / RFU, ADK / Fold change vs veh, ADK / RFU, RASSF2 / Fold change vs veh, RASSF2 / RFU, WIPF1 / Fold change vs veh, WIPF1 / RFU, LARP1B / Fold change vs veh, LARP1B / RFU, RASA1 / Fold change vs veh, RASA1 / RFU, RB1 / Fold change vs veh, RB1 / RFU, PPFIA1 / Fold change vs veh, PPFIA1 / RFU, MAT2A / Fold change vs veh, MAT2A / RFU, CCT5 / Fold change vs veh, CCT5 / RFU, WDR92 / Fold change vs veh, WDR92 / RFU, CUX1 / Fold change vs veh, CUX1 / RFU, TTC7A / Fold change vs veh, TTC7A / RFU, TMEM135 / Fold change vs veh, TMEM135 / RFU, DEPTOR / Fold change vs veh, DEPTOR / RFU, CPM / Fold change vs veh, CPM / RFU, DNAJB6 / Fold change vs veh, DNAJB6 / RFU, CACNA2D3 / Fold change vs veh, CACNA2D3 / RFU, DTX4 / Fold change vs veh, DTX4 / RFU, TFCP2 / Fold change vs veh, TFCP2 / RFU, GMCL1 /// GMCL1P1 / Fold change vs veh, GMCL1 /// GMCL1P1 / RFU, AEBP2 / Fold change vs veh, AEBP2 / RFU, SNHG1 /// SNORD22 /// SNORD25 /// SNORD26 /// SNORD27 /// SNORD28 /// SNORD29 /// SNORD31 / Fold change vs veh, SNHG1 /// SNORD22 /// SNORD25 /// SNORD26 /// SNORD27 /// SNORD28 /// SNORD29 /// SNORD31 / Fold change (Aza/veh), C12orf56 (ProbeSet 11735607_a_at) / Fold change (ACY-1035/veh), C12orf56 (ProbeSet 11735607_a_at) / Fold change (Aza/veh), FGFR1OP (ProbeSet 11751329_s_at) / Fold change (ACY-1035/veh), FGFR1OP (ProbeSet 11751329_s_at) / Fold change (Aza/veh), VPS36 (ProbeSet 11739960_a_at) / Fold change (ACY-1035/veh), VPS36 (ProbeSet 11739960_a_at) / RFU SYPL1 (11715823_x_at) / Fold change /veh SYPL1 (11715823_x_at) / RFU IGFBP7 (11715501_s_at) / Fold change /veh IGFBP7 (11715501_s_at) / RFU REEP3 (11722064_at) / Fold change /veh REEP3 (11722064_at) / RFU IGLL1 (11728026_x_at) / Fold change /veh IGLL1 (11728026_x_at): dose or concentration left out as unconfirmed
# Conditions: ProbeSet 11731461_x_at; LIST D
structure (smiles),measurement,value
Nc1ncn([C@@H]2O[C@H](CO)[C@@H](O)[C@H]2O)c(=O)n1 [azacitidine],"RFU, CPM",125.18 RFU
